Assay results from the supplement of paper PMC10307832.

Key:
Experiment in all cases: relative viability (nuclei count vs DMSO), 5 days (fraction); higher = more cells survive
Bleomycin + Olaparib = compound: CC1=C(N=C(N=C1N)[C@H](CC(=O)N)NC[C@@H](C(=O)N)N)C(=O)N[C@@H]([C@H](C2=CN=CN2)OC3C(C(C(C(O3)CO)O)O)OC4C(C(C(C(O4)CO)O)OC(=O)N)O)C(=O)N[C@H](C)[C@H]([C@H](C)C(=O)N[C@@H]([C@@H](C)O)C(=O)NCCC5=NC(=CS5)C6=NC(=CS6)C(=O)NCCC[S+](C)C)O [Bleomycin] + O=C(c1cc(Cc2n[nH]c(=O)c3ccccc23)ccc1F)N1CCN(C(=O)C2CC2)CC1 [Olaparib] (partner 8 µM); conditions: main component drawn
Procedure, shortened: (§1)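 Dosing by pin tool came one day after lung cancer cell lines were seeded in 1536-well plates, using either one drug or a fixed anchor-drug dose plus five library-drug doses (not always all listed) in √10 steps. After 5 days, nuclei were counted on 4× images. Relative viability is treated-well nuclei count divided by vehicle-well nuclei count, and values are medians of duplicate plates.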

Etoposide + Tozasertib = compound: COc1cc([C@@H]2c3cc4c(cc3[C@@H](O[C@@H]3O[C@@H]5CO[C@@H](C)O[C@H]5[C@H](O)[C@H]3O)[C@H]3COC(=O)[C@H]23)OCO4)cc(OC)c1O [Etoposide] + Cc1cc(Nc2cc(N3CCN(C)CC3)nc(Sc3ccc(NC(=O)C4CC4)cc3)n2)n[nH]1 [Tozasertib] (partner 0.1 µM)
Procedure, shortened: as §1

Bleomycin + Lapatinib = compound: CC1=C(N=C(N=C1N)[C@H](CC(=O)N)NC[C@@H](C(=O)N)N)C(=O)N[C@@H]([C@H](C2=CN=CN2)OC3C(C(C(C(O3)CO)O)O)OC4C(C(C(C(O4)CO)O)OC(=O)N)O)C(=O)N[C@H](C)[C@H]([C@H](C)C(=O)N[C@@H]([C@@H](C)O)C(=O)NCCC5=NC(=CS5)C6=NC(=CS6)C(=O)NCCC[S+](C)C)O [Bleomycin] + CS(=O)(=O)CCNCc1ccc(-c2ccc3ncnc(Nc4ccc(OCc5cccc(F)c5)c(Cl)c4)c3c2)o1 [Lapatinib] (partner 2 µM); conditions: main component drawn
Procedure, shortened: as §1

Etoposide + Decitabine = compound: COc1cc([C@@H]2c3cc4c(cc3[C@@H](O[C@@H]3O[C@@H]5CO[C@@H](C)O[C@H]5[C@H](O)[C@H]3O)[C@H]3COC(=O)[C@H]23)OCO4)cc(OC)c1O [Etoposide] + Nc1ncn([C@H]2C[C@H](O)[C@@H](CO)O2)c(=O)n1 [Decitabine] (partner 2 µM)
Procedure, shortened: as §1

Cell Line	relative viability (Bleomycin + Olaparib; first compound 0.01 µM)	relative viability (Bleomycin + Olaparib; first compound 0.03162 µM)	relative viability (Bleomycin + Olaparib; first compound 0.1 µM)	relative viability (Bleomycin + Olaparib; first compound 0.3162 µM)	relative viability (Bleomycin + Olaparib; first compound 1 µM)	relative viability (Etoposide + Tozasertib; first compound 0.01 µM)	relative viability (Etoposide + Tozasertib; first compound 0.03162 µM)	relative viability (Etoposide + Tozasertib; first compound 0.1 µM)	relative viability (Etoposide + Tozasertib; first compound 0.3162 µM)	relative viability (Etoposide + Tozasertib; first compound 1 µM)	relative viability (Bleomycin + Lapatinib; first compound 0.01 µM)	relative viability (Bleomycin + Lapatinib; first compound 0.03162 µM)	relative viability (Bleomycin + Lapatinib; first compound 0.1 µM)	relative viability (Bleomycin + Lapatinib; first compound 0.3162 µM)	relative viability (Bleomycin + Lapatinib; first compound 1 µM)	relative viability (Etoposide + Decitabine; first compound 0.01 µM)	relative viability (Etoposide + Decitabine; first compound 0.03162 µM)	relative viability (Etoposide + Decitabine; first compound 0.1 µM)	relative viability (Etoposide + Decitabine; first compound 0.3162 µM)	relative viability (Etoposide + Decitabine; first compound 1 µM)
HCC-15	0.629	0.689	0.508	0.224	0.238	0.386	0.348	0.367	0.23	0.122	0.808	0.801	0.806	0.299	0.223	0.667	0.665	0.668	0.286	0.174
HCC-44	0.84	0.739	0.657	0.415	0.401	0.759	0.886	1.11	0.57	0.317	0.648	0.429	0.228	0.193	0.145	1	1.06	0.984	0.905	0.55
HCC-78	0.592	0.617	0.652	0.488	0.487	0.375	0.488	0.988	0.264	0.184	0.64	0.918	0.549	0.429	0.215	0.669	0.697	0.429	0.317	0.265
HCC-366	0.157	0.134	0.126	0.0346	0.0334	0.0819	0.087	0.0918	0.0736	0.0452	0.52	0.337	0.212	0.0246	0.0258	0.357	0.334	0.189	0.102	0.0877
HCC-827	0.522	–	0.446	0.209	0.161	0.388	0.453	0.433	0.192	0.173	0.197	0.204	0.187	0.173	0.15	0.294	0.328	0.315	0.205	0.182
HOP-62	0.175	0.137	0.0997	0.0722	0.0872	0.388	0.386	0.366	0.279	0.203	0.485	0.395	0.15	0.14	0.141	0.227	0.199	0.212	0.207	0.179
IA-LM	0.681	0.629	0.716	0.474	0.328	–	–	–	–	–	0.476	0.7	0.623	0.274	0.336	–	–	–	–	–
LC-2-ad	0.574	0.431	0.287	0.235	0.219	0.39	0.441	0.327	0.339	0.285	0.674	0.264	0.286	0.127	0.105	0.778	0.682	0.922	0.741	0.566
LCLC-103H	0.717	0.735	0.724	0.56	0.384	0.427	0.574	0.459	0.526	0.35	–	–	–	–	–	0.763	0.835	0.766	0.71	0.599
NCI-H441	0.539	0.505	0.399	0.338	0.226	0.511	0.541	0.418	0.289	0.264	–	–	–	–	–	0.273	0.239	0.241	0.213	0.169
NCI-H522	0.498	0.627	0.625	0.404	0.333	0.589	0.554	0.539	0.59	0.516	–	–	–	–	–	0.702	0.655	0.502	0.872	0.571
NCI-H1299	0.819	0.904	0.681	0.346	0.252	–	–	–	–	–	0.926	0.985	0.772	0.431	0.382	–	–	–	–	–
NCI-H1563	–	–	–	–	–	–	–	–	–	–	0.698	0.76	0.705	0.611	0.52	–	–	–	–	–
NCI-H1623	–	–	–	–	–	0.416	0.392	0.349	0.396	0.259	–	–	–	–	–	–	–	–	–	–
NCI-H1648	0.757	0.571	0.443	0.267	0.357	–	0.359	0.416	0.282	0.28	–	–	–	–	–	–	0.513	0.454	0.466	0.341
NCI-H1703	0.55	0.508	0.289	0.309	0.166	–	–	–	–	–	1.01	1	0.807	0.287	0.281	–	–	–	–	–
NCI-H1792	0.34	0.447	0.487	0.183	0.11	–	–	–	–	–	0.848	0.798	0.841	0.326	0.139	0.515	0.741	–	0.5	0.331
NCI-H2228	0.443	0.574	0.457	0.211	0.159	0.287	0.191	0.247	0.169	0.117	0.999	1.12	0.852	0.355	0.505	–	–	–	–	–
NCI-H2342	0.377	0.4	0.416	0.319	0.362	0.528	0.512	0.379	0.315	0.272	–	–	–	–	–	0.599	0.677	0.477	0.373	0.368
SW 900	0.577	0.615	0.442	0.218	0.206	0.459	0.666	0.55	0.341	0.224	–	–	–	–	–	0.443	0.428	0.361	0.297	0.269
